The results in this text go back to patent publication US5578622A, “Isothiazole derivatives and their uses” (Asamura Patent Office, priority 1994, dated 1996).

Molecules are shown by their SMILES.

Experiment [1] deals with Trichoderma viride. The experiment is described as follows: Test for wood rotting-preventing effect (mycelium growth inhibition on malt extract agar). The conditions noted are these: 28° C.±2° C., 2 to 10 days, read-out: Rotting preventing effect (mycelium growth-inhibitory rate), TRV. Type of experiment: cell-based. As to the method:
(§1) The following fungi were cultured in agar media, respectively, and mycelial disks on the media were stamped out together with the agar using a cork borer of 4 mm in diameter. The resulting mycelial disks on agar were used as an inoculum. Each test compound of 50 ppm was added to a malt extract agar medium and added in parts to Petri dishes. The above prepared inoculum was put on the Petri dishes and cultured at 28° C.±2° C. Two to ten days after inoculation, the diameter of the mycelial disk of each fungus was measured, and the mycelium growth-inhibitory rate was obtained according to the following equation. [formula] The mycelium growth-inhibitory rate (%) is indicated by the following symbols as a fungicidal effect on each fungus, and the results are shown in Table 2. | TRV: Trichoderma viride

In experiment [2] the test system is Aspergillus niger. Described as above. The note with it: 28° C.±2° C., 2 to 10 days, read-out: Rotting preventing effect (mycelium growth-inhibitory rate), ASN. Type of experiment: cell-based. The procedure:
as §1, with “ASN: Aspergillus niger” for “TRV: Trichoderma viride”

The test system of experiment [3] is Gibberella fujikuroi ("Bakanae" disease of rice). The experiment is described as follows: Test for rice seed-disinfecting effect. It counts as in vivo. The note with it: Fusarium fujikuroi, 504 h, seed immersion 25° C. 24 hours, three weeks after treatment, read-out: Controlling effect (control of disease), "Bakanae" disease of rice. As to the method: 2-1 Test for rice seed-disinfecting effect
Unhulled rice infected with Gibberella fujikuroi ("Bakanae" disease of rice) was immersed in a test compound adjusted to 1000 ppm at 25° C. for 24 hours. Water was lightly swished off the seed, which was then sowed and germinated for two days. Three weeks after treatment with the solution containing the compound, the rate of the infected seedlings was examined, and the control of disease was calculated by comparison with that of the untreated plot. The control of disease was shown as a controlling effect on the basis of the following standard.

Experiment [4] concerns Rhizopus nigricans. The experiment is described as follows: Test for wood rotting-preventing effect (mycelium growth inhibition on malt extract agar). The conditions noted are these: Rhizopus stolonifer, 28° C.±2° C., 2 to 10 days, read-out: Rotting preventing effect (mycelium growth-inhibitory rate), RHN. Type of experiment: cell-based. The procedure: as §1, with “RHN: Rhizopus nigricans” for “TRV: Trichoderma viride”

Experiment [5] has as its system Tyromyces palustris. The description is as above. Type of experiment: cell-based. The conditions noted are these: 28° C.±2° C., 2 to 10 days, read-out: Rotting preventing effect (mycelium growth-inhibitory rate), TYP. The procedure: as §1, with “TYP: Tyromyces palustris” for “TRV: Trichoderma viride”
For experiment [6], the system named is Rhizoctonia solani. Kind of experiment: Test for controlling effect on sheath blight of rice. It counts as in vivo. The note with it: 120 h, 200 ppm spray, 24 hours after inoculation, rice 4-leaf stage, five days after inoculation, read-out: Controlling effect (control of disease), Sheath blight of rice. As to the method:
2-3 Test for controlling effect on sheath blight of rice (Rhizoctonia solani) Rice seedlings at the 4-leaf stage were inoculated with the mycelium of sheath blight of rice (Rhizoctonia solani). After 24 hours, a test medicine solution adjusted to 200 ppm was sprayed onto the seedlings. After air-drying, the seedlings were placed in a humid room for 24 hours where the temperature was kept at 28° C. and humidity was kept at 98%. Thereafter, the seedlings were transferred to a greenhouse, and five days after inoculation, the degree of infected area was examined. The control of disease was calculated by comparison with that in the untreated plot. The control of disease is shown as a controlling effect in the same manner as in Test Example 2-1.

The subject of experiment [7] is Pseudoperonospora cubensis. The experiment is described as follows: Test for controlling effect on downy mildew of cucumber. It counts as in vivo. The note with it: 168 h, 200 ppm spray, one day before inoculation, cucumber 2-leaf stage, read-out: Controlling effect (control of disease), Downy mildew of cucumber. The procedure:
2-2 Test for controlling effect on downy mildew of cucumber (Pseudoperonospora cubensis) A test compound adjusted to 200 ppm was sprayed onto cucumber at the 2-leaf stage cultivated in pots. After one day, the cucumber was inoculated by spraying the zoospore suspension of Pseudoperonospora cubensis. After inoculation, the cucumber was placed in a 25° C.-humid room for 1 day and then in a greenhouse for 6 days. Thus, the cucumber was made to be infected with downy mildew. The control of disease of the test compound is calculated by comparing the degree of infection of each leaf with that in the untreated plot. The control of disease is shown as a controlling effect in the same manner as in Test Example 2-1.

Take `CC(C#CI)OCOc1nsc(N(C)C)c1C#N` (stereo not drawn) [Compound 115]: the inhibition at 50 ppm in experiment [1], in experiment [2], in experiment [4] and in experiment [5] was 95 to 100% throughout. Further, the pest or weed control at 1000 ppm in experiment [3] was 95 to 100%. In addition, the pest or weed control at 200 ppm in experiment [6] was in the range of 95 to 100%; in experiment [7], 80 to 94%.

Turning to `COc1nsc(SCOCC#CI)c1C#N` [Compound 53, 3-methoxy-4-cyano-5-(3-iodo-2-propynyloxymethylthio)isothiazole], the inhibition at 50 ppm in experiment [1] is 95 to 100%; in experiment [2], 95 to 100%; in experiment [4], 80 to 94%; in experiment [5], 95 to 100%. The pest or weed control at 1000 ppm in experiment [3] lay within 95 to 100%. The pest or weed control at 200 ppm in experiment [6] and in experiment [7] was 95 to 100% in each case.

In the case of `N#Cc1c(OCC#CI)nsc1N1CCOCC1` [Compound 35], the inhibition at 50 ppm was 95 to 100% in experiment [1], 95 to 100% in experiment [2], 80 to 94% in experiment [4] and 95 to 100% in experiment [5]. For the same compound, the pest or weed control at 1000 ppm in experiment [3] lay in the range of 80 to 94%. The pest or weed control at 200 ppm was 80 to 94% in experiment [6] and 95 to 100% in experiment [7].

In the case of `CSc1snc(OCOC(C)C#CI)c1C#N` (stereo not drawn) [Compound 110], the inhibition at 50 ppm in experiment [1], in experiment [2], in experiment [4] and in experiment [5] was 95 to 100% each time. In experiment [3], the pest or weed control at 1000 ppm was 95 to 100%. Moreover, the pest or weed control at 200 ppm in experiment [6] and in experiment [7] was 95 to 100% in each case.

Regarding `CCS(=O)(=O)c1snc(OCCC#CI)c1C#N` [Compound 78], the inhibition at 50 ppm in experiment [1], in experiment [2], in experiment [4] and in experiment [5] was 95 to 100% each time. Further, in experiment [3], the pest or weed control at 1000 ppm was in the range of 95 to 100%. The values for the pest or weed control at 200 ppm in experiment [6] and in experiment [7] were 95 to 100% and 80 to 94%, respectively.

Consider `CC(C)(C#CI)OCOc1nsc(S(C)(=O)=O)c1C#N` [Compound 103], for which the inhibition at 50 ppm in experiment [1] is 95 to 100%; in experiment [2], 95 to 100%; in experiment [4], 80 to 94%; in experiment [5], 95 to 100%. The pest or weed control at 1000 ppm in experiment [3] was 95 to 100%. Moreover, the pest or weed control at 200 ppm in experiment [6] and in experiment [7] was 95 to 100% in each case.

For `CCS(=O)(=O)c1snc(OCOCC#CI)c1C#N` [Compound 94], the inhibition at 50 ppm in experiment [1], in experiment [2], in experiment [4] and in experiment [5] was 95 to 100% throughout. For the same compound, the pest or weed control at 1000 ppm in experiment [3] is 95 to 100%. Also, the pest or weed control at 200 ppm in experiment [6] and in experiment [7] was 95 to 100% each time.

Consider `COC(=O)Sc1snc(OCC#CI)c1C#N` [Compound 20], for which the inhibition at 50 ppm in experiment [1] lay within 95 to 100%; in experiment [2] it was 80 to 94%; in experiment [4], 60 to 79%; in experiment [5] it was 95 to 100%. Further, the pest or weed control at 1000 ppm in experiment [3] fell in the range of 80 to 94%. Also, the values for the pest or weed control at 200 ppm in experiment [6] and in experiment [7] were 60 to 79% and 95 to 100%, respectively.

As to `CC(OCC#CI)Oc1nsc(SC(F)F)c1C#N` (stereo not drawn) [Compound 122], the inhibition at 50 ppm in experiment [1], in experiment [2], in experiment [4] and in experiment [5] was 95 to 100% in each case. The pest or weed control at 1000 ppm in experiment [3] was 95 to 100%. Also, the pest or weed control at 200 ppm in experiment [6] and in experiment [7] was 95 to 100% in each case.

With `CC(=O)Oc1nsc(SCOCC#CI)c1C#N` [Compound 67], the inhibition at 50 ppm was in the range of 80 to 94% in experiment [1], 80 to 94% in experiment [2], 95 to 100% in experiment [4] and 95 to 100% in experiment [5]. Further, the pest or weed control at 1000 ppm in experiment [3] fell in the range of 80 to 94%. The pest or weed control at 200 ppm lay within 95 to 100% in experiment [6] and 80 to 94% in experiment [7].

In the case of `CSc1snc(OCOC(C)(C)C#CI)c1C#N` [Compound 100, 3-(3-iodo-l,l-dimethyl-2-propynyloxymethyloxy)-4-cyano-5-methylthioisothiazole], the inhibition at 50 ppm is 95 to 100% in experiment [1], 80 to 94% in experiment [2], 80 to 94% in experiment [4] and 95 to 100% in experiment [5]. For the same compound, the pest or weed control at 1000 ppm in experiment [3] was 95 to 100%. The pest or weed control at 200 ppm in experiment [6] and in experiment [7] was 95 to 100% each time.

Regarding `CC(OCC#CI)Sc1snc(OC(F)F)c1C#N` (stereo not drawn) [Compound 127], the inhibition at 50 ppm in experiment [1], in experiment [2], in experiment [4] and in experiment [5] was 95 to 100% throughout. In addition, the pest or weed control at 1000 ppm in experiment [3] fell in the range of 95 to 100%. Also, the pest or weed control at 200 ppm in experiment [6] and in experiment [7] was 95 to 100% in each case.
